Measurements from ChEMBL document CHEMBL4373667, “Synthesis and anti-cancer activities of glycosides and glycoconjugates of diterpenoid isosteviol” (Medchemcomm, 2019).

Key:
[1] = tested on: MCF7; test: Antiproliferative activity against human MCF7cells assessed as reduction in cell viability after 24 hrs by DAPI/propidium iodide staining based assay; format: functional; conditions: MCF7, 24 h
[2] = tested on: M-HeLa; test: Induction of mitochondrial membrane potential loss in human M-HeLa cells assessed as collapsed mitochondrial membrane potential at 25 uM after 24 hrs by Jc-10 dye based flow cytometric analysis (reference value: 22.17%); format: functional
[3] = tested on: M-HeLa; test: Induction of apoptosis in human M-HeLa cells assessed as early apoptotic cells at 25 uM after 24 hrs by annexin V-FITC/PIstaining based flow cytometric analysis (reference value: 1.5%); format: functional
[4] = Cytotoxicity against human Chang liver cells assessed as reduction in cell viability after 24 hrs by DAPI/propidium iodide staining based assay
[5] = tested on: M-HeLa; test: Induction of apoptosis in human M-HeLa cells assessed as early apoptotic cells at 10 uM after 24 hrs by annexin V-FITC/PIstaining based flow cytometric analysis (reference value: 1.5%); format: functional
[6] = tested on: M-HeLa; test: Induction of apoptosis in human M-HeLa cells assessed as necrotic cells at 10 uM after 24 hrs by annexin V-FITC/PIstaining based flow cytometric analysis (reference value: […]); format: functional
[7] = Hemolytic activity in human Erythrocytes at 50 +/- 0.8 uM relative to control; format: ADME, cell-based, Erythrocyte; conditions: read-out: Activity
[8] = tested on: M-HeLa; test: Induction of apoptosis in human M-HeLa cells assessed as viable cells at 10 uM after 24 hrs by annexin V-FITC/PIstaining based flow cytometric analysis (reference value: 93.33%); format: functional; conditions: read-out: Activity
[9] = tested on: M-HeLa; test: Induction of apoptosis in human M-HeLa cells assessed as viable cells at 25 uM after 24 hrs by annexin V-FITC/PIstaining based flow cytometric analysis (reference value: 93.33%); format: functional; conditions: read-out: Activity
[10] = tested on: M-HeLa; test: Induction of mitochondrial membrane potential loss in human M-HeLa cells assessed as collapsed mitochondrial membrane potential at 10 uM after 24 hrs by Jc-10 dye based flow cytometric analysis (reference value: 22.17%); format: functional
[11] = tested on: M-HeLa; test: Induction of apoptosis in human M-HeLa cells assessed as late apoptotic cells at 25 uM after 24 hrs by annexin V-FITC/PIstaining based flow cytometric analysis (reference value: 0.62%); format: functional
[12] = tested on: M-HeLa; test: Induction of mitochondrial membrane potential loss in human M-HeLa cells assessed as intact mitochondrial membrane potential at 25 uM after 24 hrs by Jc-10 dye based flow cytometric analysis (reference value: 77.48%); format: functional
[13] = tested on: M-HeLa; test: Antiproliferative activity against human M-HeLa cells assessed as reduction in cell viability after 24 hrs by DAPI/propidium iodide staining based assay; format: functional
[14] = Hemolytic activity in human Erythrocytes at 100 +/- 7.8 uM relative to control; format: ADME, cell-based, Erythrocyte; conditions: read-out: Activity
[15] = tested on: M-HeLa; test: Induction of apoptosis in human M-HeLa cells assessed as necrotic cells at 25 uM after 24 hrs by annexin V-FITC/PIstaining based flow cytometric analysis (reference value: […]); format: functional
[16] = Hemolytic activity in human Erythrocytes at 10 +/- 0.8 uM relative to control; format: ADME, cell-based, Erythrocyte; conditions: read-out: Activity
[17] = tested on: M-HeLa; test: Induction of mitochondrial membrane potential loss in human M-HeLa cells assessed as intact mitochondrial membrane potential at 10 uM after 24 hrs by Jc-10 dye based flow cytometric analysis (reference value: 77.48%); format: functional
[18] = tested on: M-HeLa; test: Induction of apoptosis in human M-HeLa cells assessed as late apoptotic cells at 10 uM after 24 hrs by annexin V-FITC/PIstaining based flow cytometric analysis (reference value: 0.62%); format: functional

Row | Structure (SMILES) | IC50 [1] [µM] | IC50 [4] [µM] | IC50 [13] [µM] | other results
1 | CC(=O)OC[C@H]1O[C@H](OC(=O)CCCCCOC(=O)[C@]2(C)CCC[C@@]3(C)[C@@H]4CC[C@@]5(C)C[C@]4(CC[C@@H]32)CC5=O)[C@@H](OC(C)=O)[C@@H](OC(C)=O)[C@@H]1OC(C)=O | 63.2 | > 100 | 11 | Activity [2]: 89.29%; Activity [3]: 10.59%; Activity [5]: 7.57%; Activity [6]: 0.22%; hemolysis at 50 uM [7]: 1.7%; viability at 10 µM [8]: 86.6%; viability at 25 µM [9]: 84.3%; Activity [10]: 90.91%; Activity [11]: 5.02%; Activity [12]: 10.64%; hemolysis at 100 uM [14]: 5.5%; Activity [15]: 0.05%; hemolysis at 10 uM [16]: 0%; Activity [17]: 8.98%; Activity [18]: 5.59%
2 | C[C@@]12CC[C@@H]3[C@@](CC[C@H]4[C@@]3(C)CCC[C@@]4(C)C(=O)O[C@@H]3O[C@H](CO)[C@@H](O)[C@H](O)[C@H]3O)(CC1=O)C2 | > 100 | > 100 | 32 | –
3 | CC(=O)OC[C@H]1O[C@@H](OC(=O)CCCCCCCCCOC(=O)[C@]2(C)CCC[C@@]3(C)[C@@H]4CC[C@@]5(C)C[C@]4(CC[C@@H]32)CC5=O)[C@H](OC(C)=O)[C@@H](OC(C)=O)[C@H]1OC(C)=O | 33.2 | > 100 | 27 | –
4 | CC/C(=C(\c1ccccc1)c1ccc(OCCN(C)C)cc1)c1ccccc1 [TAMOXIFEN] | – | 46 | – | –
5 | CC(=O)N[C@H]1[C@H](OC(=O)CCCCCOC(=O)[C@]2(C)CCC[C@@]3(C)[C@@H]4CC[C@@]5(C)C[C@]4(CC[C@@H]32)CC5=O)O[C@H](COC(C)=O)[C@@H](OC(C)=O)[C@@H]1OC(C)=O | > 100 | 51.2 | 46 | –
6 | CC(=O)OC[C@H]1O[C@@H](OC(=O)[C@]2(C)CCC[C@@]3(C)[C@@H]4CC[C@@]5(C)C[C@]4(CC[C@@H]32)CC5=O)[C@H](OC(C)=O)[C@@H](OC(C)=O)[C@@H]1OC(C)=O | > 100 | > 100 | > 100 | –
7 | CC(=O)OC[C@H]1O[C@H](OC(=O)CCCCCCCCCOC(=O)[C@]2(C)CCC[C@@]3(C)[C@@H]4CC[C@@]5(C)C[C@]4(CC[C@@H]32)CC5=O)[C@@H](OC(C)=O)[C@@H](OC(C)=O)[C@@H]1OC(C)=O | 31 | > 100 | 18 | –
8 | CC(=O)OC[C@H]1O[C@H](OC(=O)[C@]2(C)CCC[C@@]3(C)[C@@H]4CC[C@@]5(C)C[C@]4(CC[C@@H]32)CC5=O)[C@@H](OC(C)=O)[C@@H](OC(C)=O)[C@@H]1OC(C)=O | 29.3 | > 100 | 15.1 | Activity [2]: 92.26%; Activity [3]: 13.12%; Activity [5]: 3.02%; Activity [6]: 3.98%; hemolysis at 50 uM [7]: 0%; viability at 10 µM [8]: 85.8%; viability at 25 µM [9]: 73.7%; Activity [10]: 70.85%; Activity [11]: 12.97%; Activity [12]: 7.74%; hemolysis at 100 uM [14]: 0%; Activity [15]: 0.28%; hemolysis at 10 uM [16]: 0%; Activity [17]: 28.67%; Activity [18]: 7.25%
9 | C[C@@]12CC[C@@H]3[C@@](CC[C@H]4[C@@]3(C)CCC[C@@]4(C)C(=O)O[C@@H]3O[C@H](CO)[C@H](O)[C@H](O)[C@H]3O)(CC1=O)C2 | 29 | 58 | 52 | –
10 | CC(=O)N[C@H]1[C@H](OC(=O)CCCCCCCCCOC(=O)[C@]2(C)CCC[C@@]3(C)[C@@H]4CC[C@@]5(C)C[C@]4(CC[C@@H]32)CC5=O)O[C@H](COC(C)=O)[C@@H](OC(C)=O)[C@@H]1OC(C)=O | 64.9 | > 100 | > 100 | –
11 | CC(=O)OC[C@H]1O[C@@H](OC(=O)[C@]2(C)CCC[C@@]3(C)[C@@H]4CC[C@@]5(C)C[C@]4(CC[C@@H]32)CC5=O)[C@H](OC(C)=O)[C@@H](OC(C)=O)[C@H]1OC(C)=O | > 100 | > 100 | > 100 | –
12 | C[C@@]12CC[C@@H]3[C@@](CC[C@H]4[C@@]3(C)CCC[C@@]4(C)C(=O)O[C@@H]3O[C@H](C(=O)NN)[C@@H](O)[C@H](O)[C@H]3O)(C/C1=N\N)C2 | > 100 | > 100 | > 100 | –
13 | CC(=O)OC[C@H]1O[C@@H](OC(=O)CCCCCOC(=O)[C@]2(C)CCC[C@@]3(C)[C@@H]4CC[C@@]5(C)C[C@]4(CC[C@@H]32)CC5=O)[C@H](OC(C)=O)[C@@H](OC(C)=O)[C@H]1OC(C)=O | 32.1 | > 100 | 10 | Activity [2]: 88.38%; Activity [3]: 39.77%; Activity [5]: 34.78%; Activity [6]: 5.49%; hemolysis at 50 uM [7]: 0%; viability at 10 µM [8]: 52.1%; viability at 25 µM [9]: 37.3%; Activity [10]: 44.17%; Activity [11]: 13.98%; Activity [12]: 11.53%; hemolysis at 100 uM [14]: 0%; Activity [15]: 8.9%; hemolysis at 10 uM [16]: 0%; Activity [17]: 55.78%; Activity [18]: 7.61%
14 | CC(=O)N[C@H]1[C@H](OC(=O)[C@]2(C)CCC[C@@]3(C)[C@@H]4CC[C@@]5(C)C[C@]4(CC[C@@H]32)CC5=O)O[C@H](COC(C)=O)[C@@H](OC(C)=O)[C@@H]1OC(C)=O | 36 | 86 | 18 | –
15 | COC(=O)[C@H]1O[C@@H](OC(=O)[C@]2(C)CCC[C@@]3(C)[C@@H]4CC[C@@]5(C)C[C@]4(CC[C@@H]32)CC5=O)[C@H](OC(C)=O)[C@@H](OC(C)=O)[C@@H]1OC(C)=O | 65 | > 100 | 26 | –
16 | CC(=O)N[C@H]1[C@H](OC(=O)[C@]2(C)CCC[C@@]3(C)[C@@H]4CC[C@@]5(C)C[C@]4(CC[C@@H]32)CC5=O)O[C@H](CO)[C@@H](O)[C@@H]1O | > 100 | > 100 | > 100 | –
17 | C[C@@]12CC[C@@H]3[C@@](CC[C@H]4[C@@]3(C)CCC[C@@]4(C)C(=O)O[C@H]3O[C@H](CO)[C@@H](O)[C@H](O)[C@@H]3O)(CC1=O)C2 | > 100 | > 100 | > 100 | –
